Data: patent publication US20240148757A1, “USE OF DIHYDROOROTATE DEHYDROGENASE (DHODH) INHIBITORS TO TARGET FERROPTOSIS IN CANCER THERAPY” (BOARD OF REGENTS, THE UNIVERSITY OF TEXAS SYSTEM, priority 2021, published 2024)

Assays:
GPX4^high HT-1080 cells = test: Cell viability / cell death (ferroptosis) in HT-1080 cells; type: cell-based, human; conditions: wild-type (WT) cells, BQR 500 μM, 4 hours
Method: Briefly, cells were seeded onto 96-well plates at a density of 2×10^4 per well. The next day, cells were treated with GPX4 or DHODH inhibitors for 4 hours. Subsequently, cells exposed to 10 μl CCK-8 reagent (100 μl medium per well) for 1 hour at 37° C., 5% CO2 in an incubator. The absorbance at a wavelength of 450 nm was determined using a FLUOstar Omega microplate reader (BMG Labtech).
For propidium iodide-staining, cells were seeded at a density of 50% confluence into 12-well plates. The next day, cells were treated with different reagents. To measure cell death, the cells were collected (including floating dead cells), stained with 5 μg/ml propidium iodide and the percentage of the propidium iodide-positive dead cell population was analyzed using the flow cytometer BD Accuri C6 (BD Biosciences) and an FL2 detector. A minimum of 10,000 single cells were analyzed per well and all experiments were carried out at least in triplicate.

HT-1080 xenograft tumors = test: HT-1080 cell line-derived xenograft model; type: in vivo, athymic nude mice
Method: (§1) Fresh tumor tissues were fixed in 10% neutral buffered formalin overnight, washed once with PBS, and stored in 70% ethanol at 4° C. The tissues were dehydrated and embedded in paraffin by the Research Histology Core Laboratory (MD Anderson Cancer Center) according to standard protocols. Embedded tissues were sectioned at a thickness of 5 μm for H&E or immunohistochemistry (IHC) analysis. IHC analysis was performed as previously described (Gan, B., et al., Cancer Cell 18, 472-484 (2010); Gan, B., et al., J Cell Biol 175, 121-133 (2006)). Briefly, the primary antibodies, including ki-67 (1:500, 9027s, Cell Signaling Technology), cleaved-caspase 3 (1:500, 9661s, Cell Signaling Technology), or 4-HNE (1:400, ab46545, Abcam) were incubated overnight at 4° C. Staining was performed using the Vectastain elite ABC kit and DAB peroxidase substrate kit (Vector laboratories). Images were randomly taken from the […] (five images per tumor) at ×200 magnification using an Olympus BX43 microscope. All the xenograft experiments were performed in accordance with a protocol approved by the Institutional Animal Care and Use Committee and Institutional Review Board at The University of Texas MD Anderson Cancer Center. The study is compliant with all relevant ethical regulations regarding animal research. Female 4- to 6-week-old athymic nude mice (Foxn1^nu/Foxn1^nu) were purchased from the Experimental Radiation Oncology Breeding Core Facility at MD Anderson Cancer Center and housed in the Animal Care Facility at the Department of Veterinary Medicine and Surgery at MD Anderson. Cancer cell lines were suspended and counted in cold phosphate-buffered saline (PBS), and 5×10^6 HT-1080 or 1×10^7 NCI-H226 cells were injected into mice subcutaneously. When the tumor reached 50-100 mm^3, the mice were assigned randomly into different treatment groups. Brequinar or sulfasalazine was dissolved in dimethyl sulfoxide (DMSO) and diluted in PBS. Brequinar was intraperitoneally injected into mice at a dose of 30 mg/kg every three days. Sulfasalazine was intraperitoneally injected daily at a dose of 100 mg/kg. Liproxstatin-1 diluted in PBS was intraperitoneally injected daily at a dose of 10 mg/kg. The daily injection of brequinar, sulfasalazine, or liproxstatin-1 was continued until the endpoint as indicated in the corresponding figures. The tumor volume was measured every 3 days until the endpoint and calculated according to the equation volume=length×width^2×½.

GPX4-knockdown tumors = test: GPX4-knockdown HT-1080 xenograft model; type: in vivo, athymic nude mice
Method: as §1

[1] = tested on: GPX4^low NCI-H226 xenografts; test: NCI-H226 xenograft model; type: in vivo, athymic nude mice; conditions: brequinar 30 mg/kg intraperitoneally every three days
Method: All the xenograft experiments were performed in accordance with a protocol approved by the Institutional Animal Care and Use Committee and Institutional Review Board at The University of Texas MD Anderson Cancer Center. The study is compliant with all relevant ethical regulations regarding animal research. Female 4- to 6-week-old athymic nude mice (Foxn1^nu/Foxn1^nu) were purchased from the Experimental Radiation Oncology Breeding Core Facility at MD Anderson Cancer Center and housed in the Animal Care Facility at the Department of Veterinary Medicine and Surgery at MD Anderson. Cancer cell lines were suspended and counted in cold phosphate-buffered saline (PBS), and 5×10^6 HT-1080 or 1×10^7 NCI-H226 cells were injected into mice subcutaneously. When the tumor reached 50-100 mm^3, the mice were assigned randomly into different treatment groups. Brequinar or sulfasalazine was dissolved in dimethyl sulfoxide (DMSO) and diluted in PBS. Brequinar was intraperitoneally injected into mice at a dose of 30 mg/kg every three days. Sulfasalazine was intraperitoneally injected daily at a dose of 100 mg/kg. Liproxstatin-1 diluted in PBS was intraperitoneally injected daily at a dose of 10 mg/kg. […] The tumor volume was measured every 3 days until the endpoint and calculated according to the equation volume=length×width^2×½.

[2] = tested on: GPX4^low patient-derived xenografts (PDXs); test: GPX4^low patient-derived xenograft model; type: in vivo, NSG mice; conditions: brequinar 30 mg/kg intraperitoneally every three days
Excerpt: PDXs were generated in accordance with protocols approved by the Institutional Review Board at The University of Texas MD Anderson Cancer Center. Informed consent was obtained from the patients and the study is compliant with all relevant ethical regulations regarding research involving human participants. All the NOD scid gamma (NSG) mice were purchased from the Experimental Radiation Oncology Breeding Core Facility at MD Anderson Cancer Center and housed in the Animal Care Facility at the Department of Veterinary Medicine and Surgery at MD Anderson Cancer Center. PDX model used in this study was originally obtained from lung cancer PDX platform at MD Anderson Cancer Center. PDX experiments were performed as previously described (Liu, X., et al., Nat Cell Biol 22, 476-486 (2020)). Briefly, PDX tumors in cold DMEM media were minced into fragments 1-2 mm^3 in volume. Then each PDX tumor fragment was subcutaneously inoculated into the dorsal flank of NSG mice. When the tumors reached 50-100 mm 3 in volume, the mice were assigned randomly into different treatment groups for the treatment of brequinar, sulfasalazine, and/or liproxstatin-1 as described under cell line-derived xenograft model. The tumor volume was measured every 3 days until the endpoint and calculated according to the equation volume=length×width^2×½.

solid tumors = conditions: oncology clinical trials; cited from earlier work
DHODH = DHODH (Homo sapiens, UniProt Q02127); conditions: cited from earlier work
[3] = brequinar 30 mg/kg intraperitoneally every three days

Sequence of DHODH (Q02127 whole entry, species assumed): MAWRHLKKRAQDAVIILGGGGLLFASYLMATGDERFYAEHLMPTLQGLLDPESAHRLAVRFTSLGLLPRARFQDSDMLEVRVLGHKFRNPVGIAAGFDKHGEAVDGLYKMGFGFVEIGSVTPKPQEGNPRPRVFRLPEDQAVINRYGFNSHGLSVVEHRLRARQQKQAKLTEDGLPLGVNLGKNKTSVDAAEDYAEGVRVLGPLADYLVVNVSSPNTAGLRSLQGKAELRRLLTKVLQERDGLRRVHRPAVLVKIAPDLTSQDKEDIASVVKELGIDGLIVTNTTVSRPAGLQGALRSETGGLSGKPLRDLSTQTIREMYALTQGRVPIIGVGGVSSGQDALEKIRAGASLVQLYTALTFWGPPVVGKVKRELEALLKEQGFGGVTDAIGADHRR

Cc1c(-c2ccc(-c3ccccc3F)cc2)nc2ccc(F)cc2c1C(=O)O [brequinar]
effect on RSL3-induced ferroptosis (GPX4^high HT-1080 cells): promotes RSL3-induced ferroptosis | tumor growth (HT-1080 xenograft tumors; [3]): did not affect the growth | 4-HNE staining (lipid peroxidation marker) (HT-1080 xenograft tumors; control tumors): but not in control tumors | cleaved caspase-3 or Ki67 staining (HT-1080 xenograft tumors; control xenograft samples): did not affect | 4-HNE staining (lipid peroxidation marker) (GPX4-knockdown tumors; GPX4-knockdown tumors): dramatically increased | cleaved caspase-3 or Ki67 staining (GPX4-knockdown tumors; GPX4-knockdown xenograft samples): did not affect | tumor growth (sensitivity to DHODH inhibition) (GPX4-knockdown tumors; [3]): significantly sensitized | tumor growth [1]: significantly suppressed | tumor growth [2]: significantly suppressed | efficacy against solid tumors (solid tumors): lacks broad efficacy against solid tumors | tolerability in patients (solid tumors): well-tolerated | DHODH inhibitor potency and specificity (DHODH): potent and specific
